The values that follow come from patent publication US20260283922A1, “Particles of Hydrophobic-Chain-Modified Monosaccharides and Cyclodextrin” (PARIS SCIENCES ET LETTRES, priority 2023, published 2026).

One data set in a line: Solubility study of ML. The data set is classed as physicochemical. Conditions: without α-CD, before stirring. As to the method: The solubility study of ML was carried out in water, methanol and methanol/chloroform mixture 1/1 v/v. In 10 mL glass vials, 10 mg of ML were added to 500 μL of solvent and left under magnetic stirring at 300 rpm at 25° C.
Data set [1] can be described thus: Thermogravimetric analysis. In kind it is physicochemical. Conditions: α-CD value at 420° C. As to the method: The thermal behavior of ML/α-CD at 5 mg·mL^−1 and 70 mg·mL^−1 respectively and uncomplexed α-CD were studied using thermogravimetric analysis (FIG. 14).

In the case of `CCCCCCCCCCCCCCCCCC(=O)NCCCO[C@H]1O[C@H](CO)[C@@H](O)[C@H](O)[C@@H]1O` [ML, 3-octadecanoylamino-α-D mannopyranoside], in “Solubility study of ML”, the “solubility of ML in water” value is recorded as “insoluble”. `OC[C@H]1O[C@@H]2O[C@H]3[C@H](O)[C@@H](O)[C@@H](O[C@H]4[C@H](O)[C@@H](O)[C@@H](O[C@H]5[C@H](O)[C@@H](O)[C@@H](O[C@H]6[C@H](O)[C@@H](O)[C@@H](O[C@H]7[C@H](O)[C@@H](O)[C@@H](O[C@H]1[C@H](O)[C@H]2O)O[C@@H]7CO)O[C@@H]6CO)O[C@@H]5CO)O[C@@H]4CO)O[C@@H]3CO` [α-CD, alpha-cyclodextrin] registered a residual mass percentage in data set [1] of 0%.
